Key:
[1] = Creatinine and urea nitrogen levels in blood after renal transplantation; assay type: in vivo, rat
Text: • (1) Lewis male rats and Brown Norway male rats are purchased from Beijing Vital River Laboratory Animal Technology Co., Ltd., with weight of around 200 g and age of 6-8 weeks old, and the rearing environment is of SPF level. • (2) Establishment of acute rejection model after renal transplantation in rats: the donor of Brown Norway male rats aged 6-8 weeks, about 200 g, is transplanted into Lewis male rats, and the surgical scheme is end-to-end renal vein anastomosis as reported in most literatures. The experimental groups are divided into normal group (Control) of donor rats, acute rejection (AR) group and drug group (CX5461 of 2 mg/kg) with 5 rats each. […] The collected blood is placed in a procoagulants tube at room temperature for 1 h, centrifuged at 4000 r/min in a centrifuge at 4° C. for 10 min, and the obtained serum is packaged in an EP tube and frozen at −80° C. for enzyme-linked immunosorbent assay (ELISA) detection. The removed transplanted kidney is cut in half along the longitudinal axis and soaked in 4% paraformaldehyde for pathological reaction verification. • (3) Real-time RT-PCR analysis: RNA is extracted from rat spleen by using Trizol method, and the specific operation is as follows: 1 mL of Trizol is added to the EP tube containing rat spleen and placed in the refrigerator at 4° C. for 10 min; then, porcelain beads are added into it and put into an automatic grinder, and ground at 4° C. for 5 min; 0.2 mL chloroform (i.e., ⅕ Trizol volume) is added into the EP tube, followed by shaking vigorously for about 20 times, then centrifuging at 12,500 rpm at 4° C. for 15 min; the obtained upper aqueous phase is placed in a new EP tube and carefully aspirated about 3 times with a 200 μL gun tip, and approximately an equal volume of isopropanol (i.e., 600 μL) is added, and the RNA is precipitated by centrifugation at 12,500 rpm for 15 min at 4° C., at which time a white RNA precipitate is seen. Then, 1 ml of 75% ethanol is added for washing twice, followed by centrifugation at 12500 rpm and 4° C. for 5 min. The supernatant is discarded and the precipitated RNA is allowed to dry naturally in an ultra-clean bench. RNA is obtained by dissolving the RNA precipitate with 100 μL of Rnase-free water. Subsequently, the concentration and purity of total RNA are measured using a Nanodrop. Using the RNA as a template, reverse transcription is performed by reverse transcription kit of Beijing TransGen Biotech Company to obtain a cDNA template, and quantitative PCR analysis is carried out by using this cDNA as a template and using TransGen qPCR kit according to the instructions and the detection primers shown in Table 1 below.

renal implants = test: Appearance of the kidney graft, acute rejection model after renal transplantation in rats; assay type: in vivo, rat; details: seventh day after renal transplantation, CX5461 of 2 mg/kg, compared with acute rejection group (AR)
Text: (§1) • (1) Lewis male rats and Brown Norway male rats are purchased from Beijing Vital River Laboratory Animal Technology Co., Ltd., with weight of around 200 g and age of 6-8 weeks old, and the rearing environment is of SPF level. • (2) Establishment of acute rejection model after renal transplantation in rats: the donor of Brown Norway male rats aged 6-8 weeks, about 200 g, is transplanted into Lewis male rats, and the surgical scheme is end-to-end renal vein anastomosis as reported in most literatures. The experimental groups are divided into normal group (Control) of donor rats, acute rejection (AR) group and drug group (CX5461 of 2 mg/kg) with 5 rats each. After successful renal transplantation, the rats are killed at 3 days, 5 days and 7 days after operation, and blood is collected from the lower abdominal aorta by using a 5 mL sterile syringe. […] Subsequently, the concentration and purity of total RNA are measured using a Nanodrop. Using the RNA as a template, reverse transcription is performed by reverse transcription kit of Beijing TransGen Biotech Company to obtain a cDNA template, and quantitative PCR analysis is carried out by using this cDNA as a template and using TransGen qPCR kit according to the instructions and the detection primers shown in Table 1 below.

Pol II = details: cited from earlier work
[2] = system: IL-6, IL-10 cytokines in serum; test: ELISA of cytokines in serum after renal transplantation; assay type: in vivo, rat; details: seventh day after renal transplantation, compared with AR group, ***P<0.001
Text: as §1, with “below. […]” for “below.”

[3] = system: IL-6, IL-10, IL-17A cytokines in spleen; test: Real-time RT-PCR of cytokines in spleen after renal transplantation; assay type: in vivo, rat; details: seventh day after renal transplantation, compared with AR group, ***P<0.001
Text: as §1, with “syringe. The collected blood is placed in a procoagulants tube at room temperature for 1 h, centrifuged at 4000 r/min in a centrifuge at 4° C. for 10 min, and the obtained serum is packaged in an EP tube and frozen at −80° C. for enzyme-linked immunosorbent assay (ELISA) detection.” for “syringe.”

[4] = system: Pol I-driven rRNA transcription; details: cited from earlier work
Treg cells in the spleen = test: CD4+CD25+Foxp3+ flow cytometry of spleen; assay type: in vivo, rat; details: seventh day after renal transplantation
transplanted kidney = test: H&E staining and immunohistochemical staining (anti-IL-17A) of transplanted kidney; assay type: in vivo, rat; details: seventh day after renal transplantation
[5] = Survival of rats after renal transplantation; assay type: in vivo, rat; details: compared with acute rejection group
Text: as §1

[6] = third, fifth and seventh day after renal transplantation, AR group continues to increase
[7] = within 42 days after renal transplantation

Cc1cnc(CNC(=O)c2c(=O)c3ccc(N4CCCN(C)CC4)nc3n3c2sc2ccccc23)cn1 [CX-5461]
creatinine level [1, 6]: remain at a low level
urea nitrogen level [1, 6]: remain at a low level
creatinine level [1, 7]: remain at a relatively low level
urea nitrogen level [1, 7]: remain at a relatively low level
inflammatory immune infiltration, appearance of the kidney graft (renal implants): no obvious inflammatory immune infiltration
renal fibrosis, appearance of the kidney graft (renal implants): less renal fibrosis
effect on Pol II (Pol II): no effect
IL-6 cytokine in serum [2]: significantly down-regulated
IL-10 cytokine in serum [2]: up-regulated
IL-6 cytokine in spleen [3]: significantly down-regulated
IL-10 cytokine in spleen [3]: significantly up-regulated
IL-17A cytokine in spleen [3]: significantly down-regulated
IC50 ([4]; HCT-116, A375, and MIA PaCa-2 cells, read-out: IC50, inhibition of Pol I-driven rRNA transcription): 142 nM
selectivity of rRNA transcription inhibition over DNA replication and protein translation [4]: 250- to 300 fold
proportion of Treg cells (CD4+CD25+Foxp3+) in the spleen (Treg cells in the spleen): obviously increased
IL-17A cytokine in kidney transplant (immunohistochemistry) (transplanted kidney): reducing the levels of IL-17A cytokine
changes in renal tubules (H&E staining) (transplanted kidney): no obvious changes in renal tubules
glomerulus shrinkage (H&E staining) (transplanted kidney): no obvious shrinkage
infiltration of inflammatory cells (staining) (transplanted kidney): no obvious infiltration of inflammatory cells
renal fibrosis (staining) (transplanted kidney): reduced renal fibrosis
survival time of rats after renal transplantation [5]: significantly longer

— patent US12721853B2, “Applications of CX-5461 in treating immune rejection in renal transplantation” (Sun Yat-sen University, priority 2022, dated 2026)
